Legend:
DCA-induced itch = assay: DCA-induced pruritus in mice (scratching bouts); format: in vivo, BALB/c mice; details: 30 mg/kg i.p., DCA 50 μg/50 μL
Protocol: (§1) To investigate the antipruritic effect of berbamine, we observed the effect of berbamine on pruritogen-induced scratching behavior in BALB/c mice. Mice were transferred to clear cages and treated with berbamine intraperitoneally after a 30 min acclimatization period. Mouse behavior was recorded for 30 min right after the subcutaneous injection of pruritogens to the nape 30 min after berbamine treatment (Figure 7A). […] We further investigated the effect of berbamine on pruritus caused by other pruritogens.
(§2) Figure 7 Effect of berbamine on acute pruritogen-induced pruritus in mice: (A) Scheme of acute pruritogen-induced pruritus mouse model. […] Statistical significance of differences between each group and CQ group was assessed using one-way ANOVA with Tukey’s post hoc test. * p < 0.05, ** p < 0.01, *** p < 0.001. […] Statistical significance of differences was determined using Student’s t-test. […]
(§3) […] six-week-old BALB/c male mice were purchased from DBL (Chungcheong-do, Republic of Korea), and an additional 1 week was given for accommodation. […] After 30 min, pruritogen compounds (i.e., CQ, histamine, PAR2-AP, and DCA) were subcutaneously administered into the nape, and scratching bouts were recorded for 30 min. […] The total number of scratching bouts was counted by recording the number of scratching bouts in the recorded video over 30 min of observation time.

[1] = system: ERK1/2 phosphorylation through MrgprX1; assay: Immunoblot of ERK1/2 phosphorylation in HEK293T cells expressing MrgprX1; format: cell-based, human; details: HEK-MrgprX1 cells, 10 μM BBM for 10 min prior to CQ
histamine-induced itch = assay: Histamine-induced pruritus in mice (scratching bouts); format: in vivo, BALB/c mice; details: 30 mg/kg i.p.
Protocol: as §1, §2, §3

[2] = design: method as in PMID 29100757; details: human pharmacokinetic study; cited from earlier work
PAR2-AP-induced itch = assay: PAR2-AP-induced pruritus in mice (scratching bouts); format: in vivo, BALB/c mice; details: 30 mg/kg i.p., PAR2-AP 100 μg/50 μL
Protocol: as §1, §2, §3

COc1cc2c3cc1Oc1c(OC)c(OC)cc4c1[C@@H](Cc1ccc(O)c(c1)Oc1ccc(cc1)C[C@@H]3N(C)CC2)N(C)CC4 [berbamine]
effect on total scratching bouts induced by DCA (DCA-induced itch): no significant effect
effect on CQ-induced ERK1/2 phosphorylation [1]: significantly reduced
effect on total scratching bouts induced by histamine (histamine-induced itch): no significant effect
half-life [2]: 39.25 h
effect on total scratching bouts induced by PAR2-AP (PAR2-AP-induced itch): no significant effect

Source: publication PMC9698483, “Berbamine Reduces Chloroquine-Induced Itch in Mice through Inhibition of MrgprX1” (International Journal of Molecular Sciences, 2022)
